# Experimental data reported in patent US8383642B2, “Spiropiperidine compounds” (Eli Lilly and Company, priority 2009, dated 2013).
# Experiments:
# PPARγ = molecular target: T1, PPARγ (Homo sapiens, UniProt P37231); assay: PPARγ binding assay (SPA); design: made in house; host or cells: HEK293 (cell lysates); conditions: concentrations up to 10 μM
# T1 sequence (P37231 1-505): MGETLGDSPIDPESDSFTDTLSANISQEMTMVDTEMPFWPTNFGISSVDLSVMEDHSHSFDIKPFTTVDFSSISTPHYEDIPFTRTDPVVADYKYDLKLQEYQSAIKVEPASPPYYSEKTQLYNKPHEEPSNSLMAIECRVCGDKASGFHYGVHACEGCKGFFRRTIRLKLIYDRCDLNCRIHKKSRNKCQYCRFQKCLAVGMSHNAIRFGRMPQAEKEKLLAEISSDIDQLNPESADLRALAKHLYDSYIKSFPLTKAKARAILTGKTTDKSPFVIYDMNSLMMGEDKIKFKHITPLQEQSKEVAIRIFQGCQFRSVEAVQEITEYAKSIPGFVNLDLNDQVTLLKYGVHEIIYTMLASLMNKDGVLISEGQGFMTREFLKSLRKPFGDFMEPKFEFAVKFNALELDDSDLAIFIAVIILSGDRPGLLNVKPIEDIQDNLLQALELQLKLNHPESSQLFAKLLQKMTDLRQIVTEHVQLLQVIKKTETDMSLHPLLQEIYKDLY
# T1 sequence (P19793 1-462 partner): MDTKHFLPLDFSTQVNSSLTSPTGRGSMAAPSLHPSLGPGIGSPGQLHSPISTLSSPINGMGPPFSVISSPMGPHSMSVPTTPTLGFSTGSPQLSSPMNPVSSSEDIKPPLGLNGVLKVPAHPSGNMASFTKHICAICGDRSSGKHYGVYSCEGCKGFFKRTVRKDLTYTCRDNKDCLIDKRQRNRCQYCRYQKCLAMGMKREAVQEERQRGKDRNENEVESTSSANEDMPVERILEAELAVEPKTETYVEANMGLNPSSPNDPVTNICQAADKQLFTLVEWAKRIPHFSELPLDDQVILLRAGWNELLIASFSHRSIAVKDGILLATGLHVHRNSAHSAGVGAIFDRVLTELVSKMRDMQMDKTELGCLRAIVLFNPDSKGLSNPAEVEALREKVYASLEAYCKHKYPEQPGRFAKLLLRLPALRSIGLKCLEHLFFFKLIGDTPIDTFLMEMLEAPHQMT
# Procedure: Because GPR40 is known to be activated by ligands to PPARγ exemplified compounds are examined in PPARα, PPARδ, and PPARγ binding and functional assays to determine the selectivity of exemplified compounds for GPR40. Compounds exemplified herein are tested essentially as described below for PPAR binding and generally have binding values greater than 1000 nM with 10 μM concentrations of test compound and are thus considered negative for PPAR activity.
# Binding affinities of compounds for the PPAR α, δ, and γ receptors are assessed using Scintillation Proximity Assay (SPA) technology. Biotinylated oligonucleotide Direct Repeat 2 (DR2) is used for binding the receptors to Yttrium silicate streptavidin-coated SPA beads. […] Non-specific binding is determined in the presence of 10,000 nM of the unlabeled PPAR α/δ dual agonist reference compound for the alpha and delta receptor assays and the PPARγ agonist reference compound for the gamma receptor assay. The binding reaction (100 μl per well in a 96 well [Costar 3632] plate) is incubated for 10 h and counted disintegration per minutes (dpm) on a Wallac Microbeta. Receptor binding affinity (IC50) for the compounds is determined by fitting an 11 point concentration-response curve with a 4-parameter logistic equation. Ki, is determined from the IC50 using the Cheng-Prussoff equation and Kd determined by saturation binding. […]
# Gal4 PPARδ = molecular target: T2, Gal4 PPARδ (Homo sapiens, UniProt Q03181); assay: Gal4 PPARδ reporter functional assay (CTF); assay type: cell-based; conditions: examined up to 10 μM; CV1 cells; luciferase
# T2 construct: expressed in transfected cells; host or cells: CV1 (African green monkey kidney)
# T2 sequence (Q03181 211-439 limits assumed): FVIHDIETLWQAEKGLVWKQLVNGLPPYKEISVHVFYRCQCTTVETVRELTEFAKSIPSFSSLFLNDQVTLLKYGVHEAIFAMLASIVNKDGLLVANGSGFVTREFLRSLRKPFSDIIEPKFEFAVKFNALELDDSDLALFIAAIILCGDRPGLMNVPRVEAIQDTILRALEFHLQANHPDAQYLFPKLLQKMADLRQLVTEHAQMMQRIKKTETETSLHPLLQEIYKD
# Description: Gal4 PPARα, Gal4 PPARδ, and PPARγ reporter functional assays are also used to monitor the selectivity of exemplified compounds. CV1 cells, which are derived from the renal tissue of an African green monkey, are transfected with various receptor and reporter plasmids using Fugene. For the Gal4 PPARα and PPARδ assays, a reporter plasmid containing five tandem copies of the yeast transcription protein Gal4 response element, cloned upstream of a firefly luciferase gene driven by the major late promoter of adenovirus, is transfected together with a Simian Virus 40 (SV40) driven plasmid constitutively expressing a hybrid protein containing the Gal4 DNA binding domain (DBD), and either the PPARα or PPARδ ligand binding. For the PPARγ assay, plasmids encoding PPARγ and RXRα, both driven by a cytomegalovirus (CMV) promoter are transfected together with a plasmid containing luciferase reporter cDNA driven by the TK promoter and a receptor response element (2×PPRE). Cells are transfected in T225 cm^2 cell culture flasks in DMEM media with 5% charcoal-stripped FBS. […] After 24 hours incubation with compounds, cells are lysed and luciferase activity is determined as a measure of receptor activation by luminescence. […] The maximum percent stimulation is determined versus maximum stimulation obtained with 10 μM of an appropriate PPAR agonist reference compound. […]
structure (smiles),measurement,setting,value
"CC#C[C@@H](CC(=O)O)c1ccc(OCc2ccc(CN3CCC4(C=Cc5ccccc54)CC3)cc2)cc1 [Example 1, (3S)-3-(4-{[4-(1′H-Spiro[indene-1,4′-piperidin]-1′-ylmethyl)benzyl]oxy}phenyl)hex-4-ynoic acid]",binding detected,PPARγ,no binding is detected
same,functional activation,Gal4 PPARδ,No functional activation
